Data from ChEMBL document CHEMBL1201862, “PubChem BioAssay data set” (2004).
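96-well plates; 48 h exposure; 5 concentrations. Endpoints by linear interpolation between flanking doses. Not reached: highest tested concentration assigned. GI50 is the concentration that inhibits growth by half.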 Calls of active or inactive are those of the source. Rule as the data show it: active = GI50 up to about 1.1 µM and inactive = higher.

Assays:
Assay in all cases: NCI-60 cell line screen, 48 h
[1] = tested on: NCI-H23
[2] = tested on: SNB-19
[3] = tested on: SK-MEL-28
[4] = tested on: UO-31
[5] = tested on: MDA-MB-435
[6] = tested on: HCT-116
[7] = tested on: U-251
[8] = tested on: A498
[9] = tested on: T47D
[10] = tested on: CAKI-1
[11] = tested on: HL-60
[12] = tested on: OVCAR-5
[13] = tested on: IGROV-1
[14] = tested on: CCRF-CEM
[15] = tested on: SNB-75
[16] = tested on: SR
[17] = tested on: SK-OV-3
[18] = tested on: RXF 393
[19] = tested on: COLO 205
[20] = tested on: Hs-578T
[21] = tested on: NCI/ADR-RES
[22] = tested on: K562
[23] = tested on: MOLT-4
[24] = tested on: UACC-257
[25] = tested on: RPMI-8226
[26] = tested on: ACHN
[27] = tested on: HCC 2998
[28] = tested on: SF-268
[29] = tested on: BT-549
[30] = tested on: M14
[31] = tested on: SF-539
[32] = tested on: SK-MEL-2
[33] = tested on: HT-29
[34] = tested on: 786-0
[35] = tested on: Malme-3M
[36] = tested on: LOX IMVI
[37] = tested on: SW-620
[38] = tested on: DU-145
[39] = tested on: EKVX
[40] = tested on: HCT-15
[41] = tested on: TK-10
[42] = tested on: NCI-H460
[43] = tested on: NCI-H226
[44] = tested on: KM12
[45] = tested on: OVCAR-4
[46] = tested on: SN12C
[47] = tested on: SF-295
[48] = tested on: UACC-62
[49] = tested on: OVCAR-3
[50] = tested on: NCI-H522
[51] = tested on: A549
[52] = tested on: HOP-92
[53] = tested on: PC-3
[54] = tested on: SK-MEL-5
[55] = tested on: OVCAR-8
[56] = tested on: HOP-62
[57] = tested on: MDA-N
[58] = tested on: MDA-MB-231
[59] = tested on: MCF7

For Cc1ccccc1NC(=O)NC(Oc1ccccc1)(C(F)(F)F)C(F)(F)F, the GI50 [1] was > 100 µM (inactive), the GI50 [2] was > 100 µM (inactive) and the GI50 [3] was > 100 µM (inactive). For the same compound, the GI50 [4] was > 100 µM (inactive), the GI50 [5] was > 100 µM (inactive) and the GI50 [6] was > 100 µM (inactive). For the same compound, the GI50 [7] was > 100 µM (inactive), the GI50 [8] was > 100 µM (inactive) and the GI50 [9] was > 100 µM (inactive). For the same compound, the GI50 [10] was 22.4 µM (inactive), the GI50 [11] was > 100 µM (inactive) and the GI50 [12] was > 100 µM (inactive). The GI50 [13] was > 100 µM (inactive), the GI50 [14] was > 100 µM (inactive) and the GI50 [15] was > 100 µM (inactive). For the same compound, the GI50 [16] was > 100 µM (inactive), the GI50 [17] was > 100 µM (inactive) and the GI50 [18] was 73.1 µM (inactive). The GI50 [19] was > 100 µM (inactive), the GI50 [20] was > 100 µM (inactive) and the GI50 [21] was > 100 µM (inactive). The GI50 [22] was > 100 µM (inactive), the GI50 [23] was > 100 µM (inactive) and the GI50 [24] was > 100 µM (inactive). For the same compound, the GI50 [25] was > 100 µM (inactive), the GI50 [26] was > 100 µM (inactive) and the GI50 [27] was > 100 µM (inactive). The GI50 [28] was > 100 µM (inactive), the GI50 [29] was > 100 µM (inactive) and the GI50 [30] was > 100 µM (inactive). For the same compound, the GI50 [31] was > 100 µM (inactive), the GI50 [32] was > 100 µM (inactive) and the GI50 [33] was > 100 µM (inactive). The GI50 [34] was > 100 µM (inactive).

In the case of COc1ccc(-n2cnc3c2=NC(C)(C)NC=3C(N)=O)c(OC)c1, the GI50 [35] is reported as > 100 µM (inactive), the GI50 [36] is reported as > 100 µM (inactive) and the GI50 [37] is reported as > 100 µM (inactive). For the same compound, the GI50 [1] was > 100 µM (inactive), the GI50 [2] was > 100 µM (inactive) and the GI50 [38] was > 100 µM (inactive). For the same compound, the GI50 [3] was > 100 µM (inactive), the GI50 [5] was > 100 µM (inactive) and the GI50 [39] was > 100 µM (inactive). For the same compound, the GI50 [40] was over 100 µM, the GI50 [6] was > 100 µM (inactive) and the GI50 [7] was > 100 µM (inactive). For the same compound, the GI50 [41] was > 100 µM (inactive), the GI50 [8] was > 100 µM (inactive) and the GI50 [9] was > 100 µM (inactive). For the same compound, the GI50 [42] was > 100 µM (inactive), the GI50 [43] was > 100 µM (inactive) and the GI50 [10] was > 100 µM (inactive). For the same compound, the GI50 [44] was > 100 µM (inactive), the GI50 [45] was > 100 µM (inactive) and the GI50 [11] was > 100 µM (inactive). For the same compound, the GI50 [12] was > 100 µM (inactive), the GI50 [46] was > 100 µM (inactive) and the GI50 [13] was > 100 µM (inactive). The GI50 [14] was > 100 µM (inactive), the GI50 [47] was > 100 µM (inactive) and the GI50 [15] was > 100 µM (inactive). The GI50 [48] was > 100 µM (inactive), the GI50 [16] was > 100 µM (inactive) and the GI50 [49] was > 100 µM (inactive). The GI50 [50] was > 100 µM (inactive), the GI50 [51] was > 100 µM (inactive) and the GI50 [17] was > 100 µM (inactive). The GI50 [18] was > 100 µM (inactive), the GI50 [52] was 42.1 µM (inactive) and the GI50 [53] was > 100 µM (inactive). The GI50 [19] was > 100 µM (inactive), the GI50 [20] was > 100 µM (inactive) and the GI50 [21] was > 100 µM (inactive). For the same compound, the GI50 [54] was > 100 µM (inactive), the GI50 [22] was > 100 µM (inactive) and the GI50 [24] was > 100 µM (inactive). For the same compound, the GI50 [25] was > 100 µM (inactive), the GI50 [26] was > 100 µM (inactive) and the GI50 [27] was > 100 µM (inactive). The GI50 [28] was > 100 µM (inactive), the GI50 [55] was > 100 µM (inactive) and the GI50 [30] was > 100 µM (inactive). The GI50 [31] was > 100 µM (inactive), the GI50 [56] was > 100 µM (inactive) and the GI50 [33] was > 100 µM (inactive). The GI50 [57] was > 100 µM (inactive), the GI50 [58] was > 100 µM (inactive) and the GI50 [34] was > 100 µM (inactive). For the same compound, the GI50 [59] was > 100 µM (inactive).

In the case of COc1ccc(/C=C2\C=Cc3ccccc32)cc1OC, the GI50 [35] is reported as > 100 µM (inactive), the GI50 [36] is reported as > 100 µM (inactive) and the GI50 [37] is reported as > 100 µM (inactive). For the same compound, the GI50 [1] was 24 µM (inactive), the GI50 [2] was > 100 µM (inactive) and the GI50 [38] was > 100 µM (inactive). For the same compound, the GI50 [3] was > 100 µM (inactive), the GI50 [5] was > 100 µM (inactive) and the GI50 [39] was 22.5 µM (inactive). The GI50 [40] was over 100 µM, the GI50 [6] was 91.2 µM (inactive) and the GI50 [7] was 76 µM (inactive). The GI50 [41] was > 100 µM (inactive), the GI50 [8] was 39.4 µM (inactive) and the GI50 [9] was 47.3 µM (inactive). The GI50 [42] was > 100 µM (inactive), the GI50 [43] was 28.4 µM (inactive) and the GI50 [10] was > 100 µM (inactive). For the same compound, the GI50 [44] was > 100 µM (inactive), the GI50 [45] was 29.9 µM (inactive) and the GI50 [11] was 10.9 µM (inactive). The GI50 [12] was > 100 µM (inactive), the GI50 [46] was 60 µM (inactive) and the GI50 [13] was 73.8 µM (inactive). The GI50 [14] was 57.1 µM (inactive), the GI50 [47] was > 100 µM (inactive) and the GI50 [15] was 20.6 µM (inactive). For the same compound, the GI50 [48] was 23.1 µM (inactive), the GI50 [16] was 50.9 µM (inactive) and the GI50 [49] was > 100 µM (inactive). The GI50 [50] was 30.4 µM (inactive), the GI50 [51] was > 100 µM (inactive) and the GI50 [17] was 76.2 µM (inactive). The GI50 [18] was 50.4 µM (inactive), the GI50 [52] was 6.49 µM (inactive) and the GI50 [53] was 46.5 µM (inactive). The GI50 [19] was > 100 µM (inactive), the GI50 [20] was 29.9 µM (inactive) and the GI50 [21] was > 100 µM (inactive). For the same compound, the GI50 [54] was 43.2 µM (inactive), the GI50 [22] was 29.8 µM (inactive) and the GI50 [23] was 38.6 µM (inactive). For the same compound, the GI50 [24] was > 100 µM (inactive), the GI50 [26] was 78.2 µM (inactive) and the GI50 [27] was > 100 µM (inactive). For the same compound, the GI50 [28] was > 100 µM (inactive), the GI50 [55] was > 100 µM (inactive) and the GI50 [30] was > 100 µM (inactive). The GI50 [31] was > 100 µM (inactive), the GI50 [56] was > 100 µM (inactive) and the GI50 [32] was 72.1 µM (inactive). For the same compound, the GI50 [33] was 88.3 µM (inactive), the GI50 [57] was > 100 µM (inactive) and the GI50 [58] was 78.3 µM (inactive). The GI50 [34] was 57.5 µM (inactive) and the GI50 [59] was > 100 µM (inactive).
